Numbered stars: 1 amine (or outer) side, 2 acyl side, 3 side chain; on linkers, the order of the positions; unused ones are H or OH. Square brackets hold non-standard residues; d marks the D form. Side chains are listed from the residue outwards. Peptide text beside a SMILES is read from it. * marks the point of attachment. C20 diacid = O=C(O)CCCCCCCCCCCCCCCCCCC(=O)*; γGlu = O=C(O)[C@H](CCC(=O)[*:2])N[*:1]; αMeL = CC(C)C[C@](C)(N)C(=O)O; AEEA = NCCOCCOCC(=O)O; Aib = CC(C)(N)C(=O)O
Legend:
human GLP-1R [1] = biological target: T1, human GLP-1R (Homo sapiens, UniProt P43220); experiment: [125I]-GLP-1 binding (SPA), human GLP-1 receptor; design: expressed in transfected cells; crude membranes; conditions: read-out: hGLP1R Ki, (nM) (SEM, n)
T1 sequence (P43220 24-463): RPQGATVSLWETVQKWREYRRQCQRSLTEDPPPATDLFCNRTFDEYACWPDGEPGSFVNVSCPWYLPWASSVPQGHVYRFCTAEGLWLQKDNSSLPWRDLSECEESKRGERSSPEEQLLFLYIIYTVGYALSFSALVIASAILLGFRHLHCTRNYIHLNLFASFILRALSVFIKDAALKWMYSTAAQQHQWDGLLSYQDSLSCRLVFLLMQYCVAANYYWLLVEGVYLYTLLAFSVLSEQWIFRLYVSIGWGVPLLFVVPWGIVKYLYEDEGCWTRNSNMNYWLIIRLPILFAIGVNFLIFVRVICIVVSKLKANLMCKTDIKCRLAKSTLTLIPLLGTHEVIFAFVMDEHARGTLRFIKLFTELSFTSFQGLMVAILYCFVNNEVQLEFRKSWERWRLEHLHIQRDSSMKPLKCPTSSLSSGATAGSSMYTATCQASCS
How it was run: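 Frozen cell pellets are lysed on ice in hypotonic Tris buffer, pH 7.5, homogenized, and centrifuged to a membrane pellet resuspended at about 1 to 3 mg/mL. Binding is then measured in HEPES-based buffer at pH 7.4, and curves are fitted to give IC50 and Ki.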

human GIP receptor = biological target: T2, human GIP receptor (Homo sapiens, UniProt P48546); experiment: [125I]-GIP binding (SPA), human GIP receptor; conditions: read-out: hGIPR Ki, nM (SEM, n)
T2 construct: expressed in transfected cells; crude membranes
T2 sequence (P48546 22-466): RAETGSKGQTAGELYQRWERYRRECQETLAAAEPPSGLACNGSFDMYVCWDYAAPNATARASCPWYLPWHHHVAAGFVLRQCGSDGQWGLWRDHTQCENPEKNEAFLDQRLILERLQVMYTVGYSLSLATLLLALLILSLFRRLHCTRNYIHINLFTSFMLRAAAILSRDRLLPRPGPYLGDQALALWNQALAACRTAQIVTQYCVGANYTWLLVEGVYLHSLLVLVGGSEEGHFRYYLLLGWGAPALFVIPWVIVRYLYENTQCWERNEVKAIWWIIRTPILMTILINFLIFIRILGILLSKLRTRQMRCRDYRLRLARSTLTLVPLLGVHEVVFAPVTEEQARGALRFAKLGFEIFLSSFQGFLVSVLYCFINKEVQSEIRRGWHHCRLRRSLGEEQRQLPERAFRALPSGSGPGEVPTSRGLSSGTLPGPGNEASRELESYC

human GLP-1R [2] = biological target: T1, human GLP-1R; experiment: GLP-1R CHO cell β-arrestin recruitment assay; assay type: cell-based; design: host or cells: CHO-K1 PathHunter cells, assay-ready frozen; conditions: for EC50: CHO-K1 cells, PathHunter β-arrestin-2 recruitment, 0.1% casein, read-out: hGLP1R B-Arrestin2 Rel EC50 uM (SEM, n); for hGLP1R B-Arrestin2 % Top: normalized to GLP-1 maximum control
How it was run: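 PathHunter CHO-K1 cells with ProLink-tagged human GLP-1R and enzyme-acceptor-tagged β-arrestin-2 treated with serially diluted peptides in assay buffer containing 0.1% hydrolyzed casein, 90 min at 37 °C.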

human Gcg receptor = biological target: T3, human Gcg receptor (Homo sapiens, UniProt P47871); experiment: [125I]-Glucagon binding (SPA), human Gcg receptor; conditions: read-out: hGLcgR Ki, nM (SEM, n)
T3 construct: expressed in transfected cells; crude membranes
T3 sequence (P47871 26-477): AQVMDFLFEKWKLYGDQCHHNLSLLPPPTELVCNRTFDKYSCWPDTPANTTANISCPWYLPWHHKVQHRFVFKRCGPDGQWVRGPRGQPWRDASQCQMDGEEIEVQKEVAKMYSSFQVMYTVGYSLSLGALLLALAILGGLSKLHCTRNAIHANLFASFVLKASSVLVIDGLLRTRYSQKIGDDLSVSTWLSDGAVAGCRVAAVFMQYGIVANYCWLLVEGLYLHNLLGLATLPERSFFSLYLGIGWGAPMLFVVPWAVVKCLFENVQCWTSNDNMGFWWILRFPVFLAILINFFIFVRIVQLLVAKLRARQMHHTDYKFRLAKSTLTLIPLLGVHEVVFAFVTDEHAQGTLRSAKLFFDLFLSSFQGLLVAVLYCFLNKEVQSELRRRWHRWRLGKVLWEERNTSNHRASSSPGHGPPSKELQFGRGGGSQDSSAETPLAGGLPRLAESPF
How it was run: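 Scintillation counts are taken after membranes and WGA beads incubate and settle for 12 hours at room temperature. Buffer is 25 mM HEPES, pH 7.4, with CaCl2, MgCl2, bacitracin and Tween-20. Ki values, from four-parameter IC50 fits, are geometric means over independent days.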

[3] = biological target: T4, gastric inhibitory peptide receptor (GIPR) (Homo sapiens, UniProt P48546); experiment: cAMP pharmacological functional assay in presence of casein, hGIPR; assay type: cell-based; conditions: HEK293 cells expressing hGIPR, 0.1% Casein, geometric mean; read-out: hGIPR cAMP Rel EC50 nM (SEM, n)
T4 sequence (P48546 22-466): T2 sequence (P48546 22-466)

[4] = biological target: human GLP-1 receptor (GLP-1R) (Homo sapiens, UniProt P43220); experiment: cAMP pharmacological functional assay in presence of casein, hGLP-1R; assay type: cell-based; conditions: HEK293 cells expressing hGLP-1R, 0.1% Casein, geometric mean; read-out: hGLP1R cAMP Rel EC50 nM (SEM, n)
Sequence of human GLP-1 receptor (GLP-1R) (P43220 24-463): as the sequence (P43220 24-463) above

human GLP-1R [5] = biological target: T1, human GLP-1R; experiment: GLP-1R HEK293 cell membrane [35S]GTPγS binding assay; assay type: biochemical; design: expressed in transfected cells; host or cells: HEK293 cells expressing human GLP-1R; membranes; conditions: HEK293 cell membranes expressing human GLP-1R, [35S]GTPγS binding; read-out: hGLP1R GTPgS Rel EC50 nM (SEM, n)
How it was run: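 Membranes from HEK293 cells expressing the receptor incubated with peptide and […] [35S]GTPγS in HEPES pH 7.4 buffer with NaCl, MgCl2, saponin and BSA, 30 min at room temperature. Gαs-bound label captured by anti-Gαs antibody/SPA beads and counted; EC50 from four-parameter logistic fit.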

`CC[C@H](C)[C@H](NC(=O)[C@H](CC(C)C)NC(=O)[C@H](Cc1ccc(O)cc1)NC(=O)[C@H](CCC(=O)O)NC(=O)[C@@H](NC(=O)[C@H](Cc1ccccc1)NC(=O)[C@H](C)NC(=O)C(C)(C)NC(=O)[C@H](CCC(N)=O)NC(=O)[C@H](C)NC(=O)[C@H](CCCCNC(=O)COCCOCCNC(=O)COCCOCCNC(=O)CC[C@H](NC(=O)CCCCCCCCCCCCCCCCCCC(=O)O)C(=O)O)NC(=O)[C@H](CCCCN)NC(=O)[C@H](CC(=O)O)NC(=O)[C@H](CC(C)C)NC(=O)[C@](C)(CC(C)C)NC(=O)[C@@H](NC(=O)[C@H](CO)NC(=O)[C@H](Cc1ccc(O)cc1)NC(=O)[C@H](CC(=O)O)NC(=O)[C@H](CO)NC(=O)[C@@H](NC(=O)[C@H](Cc1ccccc1)NC(=O)[C@@H](NC(=O)CNC(=O)[C@H](CCC(=O)O)NC(=O)C(C)(C)NC(=O)[C@H](N)Cc1ccc(O)cc1)[C@@H](C)O)[C@@H](C)O)[C@@H](C)CC)[C@@H](C)CC)C(=O)N[C@@H](C)C(=O)NCC(=O)NCC(=O)N1CCC[C@H]1C(=O)N[C@@H](CO)C(=O)N[C@@H](CO)C(=O)NCC(=O)N[C@@H](C)C(=O)N1CCC[C@H]1C(=O)N1CCC[C@H]1C(=O)N1CCC[C@H]1C(=O)N[C@@H](CO)C(N)=O` [Example 340] (H-[dY][Aib]EGTFTSDYSI[αMeL]LDKK([AEEA-AEEA-γGlu-C20 diacid])AQ[Aib]AFIEYLIAGGPSSGAPPPS-NH2) showed a Ki (human GLP-1R [1]) of 2.08 nM, a Ki (human GIP receptor) of 0.0507 nM and an EC50 (human GLP-1R [2]) of 0.0107 µM. The “hGLP1R B-Arrestin2 % Top” value (human GLP-1R [2]) was 20.1%, the Ki (human Gcg receptor) was 250 nM and the EC50 [3] was 0.0823 nM. It also gave an EC50 [4] of 0.252 nM and an EC50 (human GLP-1R [5]) of 0.45 nM.

`CC[C@H](C)[C@H](NC(=O)[C@H](CC(C)C)NC(=O)[C@H](Cc1ccc(O)cc1)NC(=O)[C@H](CCC(=O)O)NC(=O)[C@@H](NC(=O)[C@H](Cc1ccccc1)NC(=O)[C@H](C)NC(=O)C(C)(C)NC(=O)[C@H](CCC(N)=O)NC(=O)[C@H](C)NC(=O)[C@H](CCCCNC(=O)COCCOCCNC(=O)COCCOCCNC(=O)CC[C@H](NC(=O)CCCCCCCCCCCCCCCCCCC(=O)O)C(=O)O)NC(=O)[C@H](CCC(=O)O)NC(=O)[C@H](CC(=O)O)NC(=O)[C@H](CC(C)C)NC(=O)[C@](C)(CC(C)C)NC(=O)[C@@H](NC(=O)[C@H](CO)NC(=O)[C@H](Cc1ccc(O)cc1)NC(=O)[C@H](CC(=O)O)NC(=O)[C@H](CO)NC(=O)[C@@H](NC(=O)[C@H](Cc1ccccc1)NC(=O)[C@@H](NC(=O)CNC(=O)[C@H](CCC(=O)O)NC(=O)C(C)(C)NC(=O)[C@H](N)Cc1ccc(O)cc1)[C@@H](C)O)[C@@H](C)O)[C@@H](C)CC)[C@@H](C)CC)C(=O)N[C@@H](C)C(=O)NCC(=O)NCC(=O)N1CCC[C@H]1C(=O)N[C@@H](CO)C(=O)N[C@@H](CO)C(=O)NCC(=O)N[C@@H](C)C(=O)N1CCC[C@H]1C(=O)N1CCC[C@H]1C(=O)N1CCC[C@H]1C(=O)N[C@@H](CO)C(N)=O` [Example 341] (H-[dY][Aib]EGTFTSDYSI[αMeL]LDEK([AEEA-AEEA-γGlu-C20 diacid])AQ[Aib]AFIEYLIAGGPSSGAPPPS-NH2; N-terminus assumed) was tested, and the Ki (human GLP-1R [1]) was 6.49 nM, the Ki (human GIP receptor) was 0.0559 nM and the EC50 (human GLP-1R [2]) was 0.0188 µM. The “hGLP1R B-Arrestin2 % Top” value (human GLP-1R [2]) was 21.9%, the Ki (human Gcg receptor) was 39.7 nM and the EC50 [3] was 0.238 nM. It also gave an EC50 [4] of 0.373 nM and an EC50 (human GLP-1R [5]) of 0.496 nM.

Compound `CC[C@H](C)[C@H](NC(=O)[C@H](CC(C)C)NC(=O)[C@H](Cc1ccc(O)cc1)NC(=O)[C@H](CCC(=O)O)NC(=O)[C@@H](NC(=O)[C@H](Cc1ccccc1)NC(=O)[C@H](CCC(=O)O)NC(=O)C(C)(C)NC(=O)[C@H](CCC(N)=O)NC(=O)[C@H](C)NC(=O)[C@H](CCCCNC(=O)COCCOCCNC(=O)COCCOCCNC(=O)CC[C@H](NC(=O)CCCCCCCCCCCCCCCCCCC(=O)O)C(=O)O)NC(=O)[C@H](CCC(=O)O)NC(=O)[C@H](CC(=O)O)NC(=O)[C@H](CC(C)C)NC(=O)[C@](C)(CC(C)C)NC(=O)[C@@H](NC(=O)[C@H](CO)NC(=O)[C@H](Cc1ccc(O)cc1)NC(=O)[C@H](CC(=O)O)NC(=O)[C@H](CO)NC(=O)[C@@H](NC(=O)[C@H](Cc1ccccc1)NC(=O)[C@@H](NC(=O)CNC(=O)[C@H](CCC(=O)O)NC(=O)C(C)(C)NC(=O)[C@H](N)Cc1ccc(O)cc1)[C@@H](C)O)[C@@H](C)O)[C@@H](C)CC)[C@@H](C)CC)C(=O)N[C@@H](C)C(=O)NCC(=O)NCC(=O)N1CCC[C@H]1C(=O)N[C@@H](CO)C(=O)N[C@@H](CO)C(=O)NCC(=O)N[C@@H](C)C(=O)N1CCC[C@H]1C(=O)N1CCC[C@H]1C(=O)N1CCC[C@H]1C(=O)N[C@@H](CO)C(N)=O` [Example 342] (H-[dY][Aib]EGTFTSDYSI[αMeL]LDEK([AEEA-AEEA-γGlu-C20 diacid])AQ[Aib]EFIEYLIAGGPSSGAPPPS-NH2; N-terminus assumed) has a Ki (human GLP-1R [1]) of 15.4 nM, a Ki (human GIP receptor) of 0.129 nM and an EC50 (human GLP-1R [2]) of 0.035 µM. The “hGLP1R B-Arrestin2 % Top” value (human GLP-1R [2]) was 20.7%, the Ki (human Gcg receptor) was > 1000 nM and the EC50 [3] was 0.159 nM. The EC50 [4] was 0.127 nM and the EC50 (human GLP-1R [5]) was 0.414 nM.

`CC[C@H](C)[C@H](NC(=O)[C@H](CC(C)C)NC(=O)[C@H](Cc1ccc(O)cc1)NC(=O)[C@@H](CCC(=O)O)NC(=O)[C@@H](NC(=O)[C@H](Cc1ccccc1)NC(=O)[C@H](C)NC(=O)C(C)(C)NC(=O)[C@H](CCC(N)=O)NC(=O)[C@H](C)NC(=O)[C@H](CCCCNC(=O)COCCOCCNC(=O)COCCOCCNC(=O)CC[C@H](NC(=O)CCCCCCCCCCCCCCCCCCC(=O)O)C(=O)O)NC(=O)[C@H](CCC(=O)O)NC(=O)[C@H](CC(=O)O)NC(=O)[C@H](CC(C)C)NC(=O)[C@](C)(CC(C)C)NC(=O)[C@@H](NC(=O)[C@H](CO)NC(=O)[C@H](Cc1ccc(O)cc1)NC(=O)[C@H](CC(=O)O)NC(=O)[C@H](CO)NC(=O)[C@@H](NC(=O)[C@H](Cc1ccccc1)NC(=O)[C@@H](NC(=O)CNC(=O)[C@H](CCC(=O)O)NC(=O)C(C)(C)NC(=O)[C@@H](N)Cc1ccc(O)cc1)[C@@H](C)O)[C@@H](C)O)[C@@H](C)CC)[C@@H](C)CC)C(=O)N[C@@H](C)C(=O)NCC(=O)NCC(=O)N1CCC[C@H]1C(=O)N[C@@H](CO)C(=O)N[C@@H](CO)C(=O)NCC(=O)N[C@@H](C)C(=O)N1CCC[C@H]1C(=O)N1CCC[C@H]1C(=O)N1CCC[C@H]1C(=O)N[C@@H](CO)C(N)=O` [Example 343] (H-Y[Aib]EGTFTSDYSI[αMeL]LDEK([AEEA-AEEA-γGlu-C20 diacid])AQ[Aib]AFI[dE]YLIAGGPSSGAPPPS-NH2) gave a Ki (human GLP-1R [1]) of 13.3 nM, a Ki (human GIP receptor) of 0.0374 nM and an EC50 (human GLP-1R [2]) of 0.0455 µM. The “hGLP1R B-Arrestin2 % Top” value (human GLP-1R [2]) was 41.4%, the Ki (human Gcg receptor) was > 1070 nM and the EC50 [3] was 0.0422 nM. For the same compound, the EC50 [4] was 0.124 nM and the EC50 (human GLP-1R [5]) was 0.522 nM.

Reference: patent publication US12252524B2, “GIP/GLP1 co-agonist compounds” (Eli Lilly and Company, priority 2018, dated 2025)
